The nature of data set [1]: Toxicity in New Zealand white rabbit erythrocytes assessed as hemolytic activity after 60 mins. As to conditions: erythrocyte, 1 h. It is filed as cell-based, Oryctolagus cuniculus.
The test system of data set [2] is Klebsiella pneumoniae. Nature of the data set: Antibacterial activity against Klebsiella pneumoniae DM4299 after 24 hrs by broth microdilution method. It is filed as functional. The settings on record: DM4299, 24 h.
For data set [3], the system named is Pseudomonas aeruginosa. Nature of the data set: Antibacterial activity against Pseudomonas aeruginosa DM23155 after 24 hrs by broth microdilution method. It is filed as functional. The settings on record: DM23155, 24 h. In general terms: Dilution methods test growth across graded concentrations, often in twofold steps.
The subject of data set [4] is Escherichia coli. Nature of the data set: Antibacterial activity against Escherichia coli ATCC 25922 after 24 hrs by broth microdilution method. It is filed as functional. The settings on record: ATCC 25922, 24 h.
For data set [5], the system named is Pseudomonas aeruginosa. The data set can be described thus: Antibacterial activity against Pseudomonas aeruginosa DR18531 after 24 hrs by broth microdilution method. It is filed as functional. The settings on record: DR18531, 24 h.
In data set [6] the test system is Pseudomonas aeruginosa. Nature of the data set: Antibacterial activity against Pseudomonas aeruginosa DM4150R after 24 hrs by broth microdilution method. It is filed as functional.
Data set [7] has as its system Pseudomonas aeruginosa. The data set can be described thus: Antibacterial activity against Pseudomonas aeruginosa DM23257 after 24 hrs by broth microdilution method. As to conditions: DM23257, 24 h. It is filed as functional.
For data set [8], the system named is Pseudomonas aeruginosa. Nature of the data set: Antibacterial activity against Pseudomonas aeruginosa DM23376 after 24 hrs by broth microdilution method. It is filed as functional. As to conditions: DM23376, 24 h.
The test system of data set [9] is Pseudomonas aeruginosa. Nature of the data set: Antibacterial activity against Pseudomonas aeruginosa DU14476 after 24 hrs by broth microdilution method. It is filed as functional. As to conditions: DU14476, 24 h.
Data set [10] concerns Pseudomonas aeruginosa. Nature of the data set: Antibacterial activity against Pseudomonas aeruginosa DR5790 after 24 hrs by broth microdilution method. It is filed as functional. As to conditions: DR5790, 24 h.
Data set [11] deals with Pseudomonas aeruginosa. The data set can be described thus: Antibacterial activity against Pseudomonas aeruginosa DR4877 after 24 hrs by broth microdilution method. It is filed as functional. As to conditions: DR4877, 24 h.
Data set [12] has as its system Pseudomonas aeruginosa. The data set can be described thus: Antibacterial activity against Pseudomonas aeruginosa ATCC 9027 after 24 hrs by broth microdilution method. It is filed as functional. As to conditions: ATCC 9027, 24 h.
For data set [13], the system named is Pseudomonas aeruginosa. The data set can be described thus: Antibacterial activity against Pseudomonas aeruginosa ATCC 27853 after 24 hrs by broth microdilution method. As to conditions: ATCC 27853, 24 h. It is filed as functional.
The test system of data set [14] is Lipopolysaccharide (LPS). Nature of the data set: Displacement of dansylcadaverine from Escherichia coli 0111:B4 LPS at 15 to 30 uM after 5 mins by high-throughput fluorescence displacement assay.
For data set [15], the system named is Lipopolysaccharide (LPS). Nature of the data set: Induction of Escherichia coli 0111:B4 LPS neutralization using p-nitroaniline assessed as concentration required to neutralize 50% after 1 hr by limulus amebocyte lysate assay.
Data set [16] has as its system Pseudomonas aeruginosa. Nature of the data set: Induction of cytoplasmic membrane depolarization in Pseudomonas aeruginosa DM23155 at 4 times MIC after 1 hr by fluorescence assay. It is filed as functional, organism-based.
Data set [17] deals with Pseudomonas aeruginosa. Nature of the data set: Induction of cytoplasmic membrane disruption in Pseudomonas aeruginosa DM23155 assessed as membrane integrity at 1 to 2 times MIC after 1 hr by fluorescence assay. It is filed as functional.
For data set [18], the system named is Pseudomonas aeruginosa. The data set can be described thus: Induction of cytoplasmic membrane disruption in Pseudomonas aeruginosa DM23155 assessed as membrane integrity at 2 times MIC after 1 hr by fluorescence assay. It is filed as functional.
Data set [19] can be described thus: Induction of calcein leakage from DOPE/DOPG artificial membrane at 1:32 ratio of compound to lipid by fluorescence assay. It is filed as physicochemical.
The nature of data set [20]: Induction of calcein leakage from DOPC artificial membrane at 1:32 ratio of compound to lipid by fluorescence assay. It is filed as physicochemical.
Data set [21] deals with Pseudomonas aeruginosa. Nature of the data set: Induction of 1-N-phenylnaphthylamine uptake in Pseudomonas aeruginosa DM23155 at 400 uM after 1 hr by fluorescence assay relative to polymyxin B. It is filed as functional.
The test system of data set [22] is Pseudomonas aeruginosa. Nature of the data set: Antibacterial activity against Pseudomonas aeruginosa DM23155 assessed as log reduction of viable count at 2 times MIC after 5 hrs by time-kill assay relative to control. It is filed as functional.
The test system of data set [23] is Pseudomonas aeruginosa. Nature of the data set: Antibacterial activity against Pseudomonas aeruginosa DM23155 assessed as log reduction of viable count at 2 times MIC after 24 hrs by time-kill assay. It is filed as functional, organism-based.
For data set [24], the system named is Pseudomonas aeruginosa. The data set can be described thus: Antibacterial activity against Pseudomonas aeruginosa DM23155 assessed as log reduction of viable count at 1 time MIC after 24 hrs by time-kill assay. It is filed as functional, organism-based.
In data set [25] the test system is Pseudomonas aeruginosa. The data set can be described thus: Antibacterial activity against Pseudomonas aeruginosa DM23155 assessed as log reduction of viable count at 1 time MIC after 5 hrs by time-kill assay relative to control. It is filed as functional.

SMILES strings stand for the structures. Values after ≈ are worked out from the molar mass of the structure shown. Active and inactive are the calls of the source. Bridge positions count the residues as written; N and C are the ends. Peptide text beside a SMILES is read from it. I, II: the chains in the order shown. * marks the point of attachment. Decanoyl = CCCCCCCCCC(=O)* Where only a bound is given, the exact number is not on record here.

The term MIC denotes the smallest concentration in the dilution series that meets the test's criterion for growth inhibition. By EC50 is commonly meant the concentration that produces a half-maximal response. `CCCCCCCCCC(=O)N[C@@H](CCCNC(=N)N)C(=O)NCC(=O)N[C@@H](CCCNC(=N)N)C(=O)N[C@@H](CCCCN)C(=O)N[C@H](C(=O)N[C@H](C(=O)N[C@@H](CCCNC(=N)N)C(=O)N[C@@H](CCCNC(=N)N)C(=O)NCCCC[C@H](NC(=O)[C@H](CCCNC(=N)N)NC(=O)[C@H](CCCNC(=N)N)NC(=O)[C@@H](NC(=O)[C@@H](NC(=O)[C@H](CCCCN)NC(=O)[C@H](CCCNC(=N)N)NC(=O)CNC(=O)[C@H](CCCNC(=N)N)NC(=O)CCCCCCCCC)C(C)C)C(C)C)C(=O)N[C@@H](CCCCN)C(=O)O)C(C)C)C(C)C` (I: Decanoyl-RGRKVVRRKK-OH / II: Decanoyl-RGRKVVRR; amide I:9-II:C): the HC10 in data set [1] was above 10000 µg/mL. In addition, the MIC was 3 µM (≈ 7.8 µg/mL) in data set [2]; 3 µM (≈ 7.8 µg/mL) in [3]; 6 µM (≈ 15.6 µg/mL) in [4]; 1.5 µM (≈ 3.9 µg/mL) in data set [5]; 1.5 µM (≈ 3.9 µg/mL) in data set [6]; 3 µM (≈ 7.8 µg/mL) in data set [7]. Also, the MIC turned out to be 3 µM (≈ 7.8 µg/mL) in [8]; 3 µM (≈ 7.8 µg/mL) in [9]; 3 µM (≈ 7.8 µg/mL) in data set [10]; 6 µM (≈ 15.6 µg/mL) in data set [11]; 3 µM (≈ 7.8 µg/mL) in data set [12]; 3 µM (≈ 7.8 µg/mL) in data set [13]. Also, the Activity was 131% in [14]; above 80% in data set [17]; 51.1% in data set [18]; “Active” in data set [19]; “Active” in data set [20]. The concentration giving a half-maximal response (EC50) in [15] amounted to 38.1 µM. The result in [16] was Active.

Take `N=C(N)NCCC[C@H](NC(=O)CNC(=O)CNC(=O)[C@H](CCCCN)NC(=O)[C@H](CCCNC(=N)N)NC(=O)CNC(=O)[C@@H](N)CCCNC(=N)N)C(=O)N[C@@H](CCCNC(=N)N)C(=O)NCCCC[C@H](NC(=O)[C@H](CCCNC(=N)N)NC(=O)[C@H](CCCNC(=N)N)NC(=O)CNC(=O)CNC(=O)[C@H](CCCCN)NC(=O)[C@H](CCCNC(=N)N)NC(=O)CNC(=O)[C@@H](N)CCCNC(=N)N)C(=O)N[C@@H](CCCCN)C(=O)O` (I: H-RGRKGGRRKK-OH / II: H-RGRKGGRR; amide I:9-II:C): in [1], the HC10 was above 10000 µg/mL. For the same molecule, the MIC in data set [2] came to 3 µM (≈ 6.37 µg/mL); in data set [3], 6 µM (≈ 12.7 µg/mL); in data set [4], 6 µM (≈ 12.7 µg/mL); in data set [5] it was 3 µM (≈ 6.37 µg/mL); in [6] it was 6 µM (≈ 12.7 µg/mL); in data set [7], 10 µM (≈ 21.2 µg/mL). The MIC in data set [8], in data set [9], in [10], in data set [11], in [12] and in data set [13] was 6 µM (≈ 12.7 µg/mL) throughout. Further, the Activity came to 84.8% in data set [14] and 1.9% in data set [21]. Also, in data set [15], the EC50 was above 1000 µM. Moreover, the FC in [22] is reported as 10; in data set [25], 2.7. Further, the outcome in data set [23] was Active. For the same molecule, in data set [24], the outcome was inactive.

The values above are taken from ChEMBL document CHEMBL3603789, “N-Lipidated Peptide Dimers: Effective Antibacterial Agents against Gram-Negative Pathogens through Lipopolysaccharide Permeabilization” (J Med Chem, 2015).
